Test results published in EP0648759A1, “Antihistaminic compounds, process for their preparation and pharmaceutical compositions containing them” (ERREGIERRE S.p.A., priority 1993, dated 1995).

How the values were obtained:
[1] = molecular target: T1, H₁ receptor (Cavia porcellus, UniProt P31389); assay: Binding assay under saturation kinetics conditions (Scatchard); set-up: species or system guinea pig; settings: in the presence of TFZ 2 x 10⁻⁷ M
T1 construct: A portion of terminal ileum was excised and immersed in a bath for isolated organ; from tissue; host or cells: guinea pig isolated terminal ileum
Procedure: These assays (Scatchard) were carried out under the same incubation conditions and according to the conclusive test method described under paragraph 1a), with the exception that the radioligand concentration was changed according to a range of concentrations comprised between 0.3 and 10 nM, in the presence of a concentration of antagonist TFZ of 2 x 10⁻⁷ M.

[2] = molecular target: T1, H₁ receptor; assay: Functional activity on guinea pig isolated ileum, histamine-induced contractions; format: cell-based
Procedure: (§1) The test was essentially meant to characterize the type of activity of the molecules under examination by checking their antagonist activity versus H₁ receptor. To this end, the guinea pig isolated ileum was used for two different tests: a) evaluation of the antagonist activity towards the agonist histamine; b) evaluation of the antagonist activity towards the agonist acetylcholine. Said tests were carried out to check the specificity and selectivity levels of the moleculas under examination.
(§2) Male and female guinea pigs weighing approx. 250 g were used. A portion of terminal ileum was excised and immersed in a bath for isolated organ, in Tyrode solution, at 37°C. The antagonist activity was evaluated by determining the ability of the studied drug to modify the dose-effect curve built with increasing doses of agonist alone. Furthermore, in another series of experiments, increasing doses of the molecules under examination were tested in comparison with a submaximal dose of agonist.
The dose of histamine used was 6.8x10⁻⁸ M. The percentage of inhibition found after adding the tested drug to the bath for isolated organ versus the response obtained from the agonist alone was calculated. Six detections were carried out for each drug concentration. The results, calculated in terms of IC₅₀, corresponded to the drug concentrations responsible for a 50% reduction in the submaximal concentration of the agonist alone.

[3] = tested on: muscarinic cholinergic receptor; assay: Functional activity on guinea pig isolated ileum, acetylcholine-induced contractions; format: cell-based; settings: TFZ 5 x 10⁻⁷ M, dose corresponding to the IC₅₀ effective against histamine
Procedure: as §1, §2
With a view to estimating the antagonist specificity level of the molecule TFZ under examination and taking into account the anticholinergic activity often associated with antihistaminic molecules, the capability of TFZ of antagonizing the acetylcholine (ACh) contraction effect on guinea pig isolated ileum was tested. […]

T1 sequence (P31389 whole entry): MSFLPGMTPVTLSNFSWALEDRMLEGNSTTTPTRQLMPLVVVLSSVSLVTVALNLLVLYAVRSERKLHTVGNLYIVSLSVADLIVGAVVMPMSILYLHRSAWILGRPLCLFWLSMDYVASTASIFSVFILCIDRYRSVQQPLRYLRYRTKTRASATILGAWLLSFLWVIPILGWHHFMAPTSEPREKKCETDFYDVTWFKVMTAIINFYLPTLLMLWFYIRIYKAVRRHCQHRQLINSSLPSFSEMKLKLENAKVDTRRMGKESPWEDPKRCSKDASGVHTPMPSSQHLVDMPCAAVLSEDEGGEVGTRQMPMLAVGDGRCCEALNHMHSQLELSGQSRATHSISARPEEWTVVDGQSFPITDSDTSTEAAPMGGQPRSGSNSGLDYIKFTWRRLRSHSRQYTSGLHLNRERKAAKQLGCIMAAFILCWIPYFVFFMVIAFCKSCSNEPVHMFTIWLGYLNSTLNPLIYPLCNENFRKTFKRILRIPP

**Q.** Which results are given for CC(C)(c1ccc(C(O)CCCN2CCC(C(O)(c3ccccc3)c3ccccc3)CC2)cc1)c1nn[nH]n1 (racemic) [TFZ, p-1-hydroxy-4-(4-hydroxydiphenylmethyl-1-piperidinyl)-butyl-2-(1H-tetrazol-5-yl)-isopropyl benzene]?
**A.** Bmax (density of the binding sites) [1]: no significant change; IC₅₀, inhibition of histamine-submaximal contraction ([2]; histamine 6.8 x 10⁻⁸ M, comparison in words, numbers only in Fig. 5): completely superimposable to that of MET I; agonist activity (contraction of the ileum smooth muscles) ([2]; increasing doses added to the bath perfusion liquid, no agonist): no agonist activity; type of antagonist activity towards histamine (Lineweaver-Burk) ([2]; three TFZ concentrations, Fig. 4): competitive antagonist activity; inhibitory activity against acetylcholine (ACh) contraction effect [3]: no inhibitory activity
